Assay results as given in the kinase profiling compilation of Christmann-Franck et al. (2016).

How the values were obtained:
Test in all cases: KINOMEscan competition binding
Details in all cases: compound 10.0 µM
CDK2 (human) = CDK2 (human) (UniProt P24941)
EIF2AK1 (human) = EIF2AK1 (human) (UniProt Q9BQI3)
[1] = tested on: ABL1 (human), P00519 [Q252H]
ABL1 (human) = ABL1 (human) (UniProt P00519)
[2] = tested on: ABL1 (human), P00519 [T315I]
BUB1 (human) = BUB1 (human) (UniProt O43683)
GSG2 (human) = GSG2 (human) (UniProt Q8TF76)
SGK1 (human) = SGK1 (human) (UniProt O00141)
WNK3 (human) = WNK3 (human) (UniProt Q9BYP7)
WNK1 (human) = WNK1 (human) (UniProt Q9H4A3)
RPS6KA3 KD2 (human) = RPS6KA3 KD2 (human) (UniProt P51812)
Chain of RPS6KA3 KD2 (human) (P51812 whole entry, looked up): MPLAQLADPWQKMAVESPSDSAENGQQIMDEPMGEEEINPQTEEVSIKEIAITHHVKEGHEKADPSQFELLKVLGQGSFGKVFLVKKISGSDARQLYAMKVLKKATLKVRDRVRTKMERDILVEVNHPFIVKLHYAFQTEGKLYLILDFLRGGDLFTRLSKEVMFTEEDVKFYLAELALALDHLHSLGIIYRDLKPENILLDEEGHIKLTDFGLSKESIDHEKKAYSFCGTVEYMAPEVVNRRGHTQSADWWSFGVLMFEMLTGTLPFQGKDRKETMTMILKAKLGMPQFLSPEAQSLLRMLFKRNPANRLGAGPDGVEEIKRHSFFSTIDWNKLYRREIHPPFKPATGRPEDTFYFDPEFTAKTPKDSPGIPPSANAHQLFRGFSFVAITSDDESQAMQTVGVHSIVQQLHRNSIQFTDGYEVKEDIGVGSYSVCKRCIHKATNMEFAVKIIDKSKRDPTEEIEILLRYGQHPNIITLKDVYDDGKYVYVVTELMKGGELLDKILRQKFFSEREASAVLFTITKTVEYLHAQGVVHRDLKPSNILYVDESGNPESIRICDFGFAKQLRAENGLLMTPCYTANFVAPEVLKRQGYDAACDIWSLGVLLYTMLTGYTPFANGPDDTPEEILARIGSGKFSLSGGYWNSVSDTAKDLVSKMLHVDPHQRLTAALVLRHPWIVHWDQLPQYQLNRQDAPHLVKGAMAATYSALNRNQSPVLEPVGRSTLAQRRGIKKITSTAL

Chain of EIF2AK1 (human) (Q9BQI3 whole entry, looked up): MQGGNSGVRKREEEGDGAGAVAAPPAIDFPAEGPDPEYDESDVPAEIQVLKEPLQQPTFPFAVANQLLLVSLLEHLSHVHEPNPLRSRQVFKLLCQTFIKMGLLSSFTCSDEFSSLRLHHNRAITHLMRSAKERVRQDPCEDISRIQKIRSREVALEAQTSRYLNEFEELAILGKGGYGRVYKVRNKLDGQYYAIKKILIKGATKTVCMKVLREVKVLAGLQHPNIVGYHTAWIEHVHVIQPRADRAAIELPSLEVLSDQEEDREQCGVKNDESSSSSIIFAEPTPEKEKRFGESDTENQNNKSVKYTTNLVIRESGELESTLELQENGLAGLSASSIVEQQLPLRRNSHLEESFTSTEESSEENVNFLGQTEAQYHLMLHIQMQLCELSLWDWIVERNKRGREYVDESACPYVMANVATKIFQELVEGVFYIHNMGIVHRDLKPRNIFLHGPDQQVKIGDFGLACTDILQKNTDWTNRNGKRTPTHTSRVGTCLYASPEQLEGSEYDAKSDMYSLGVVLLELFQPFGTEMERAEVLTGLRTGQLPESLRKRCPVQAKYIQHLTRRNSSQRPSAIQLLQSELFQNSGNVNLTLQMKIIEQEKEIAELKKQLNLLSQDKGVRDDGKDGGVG
Chain of BUB1 (human) (O43683 whole entry, looked up): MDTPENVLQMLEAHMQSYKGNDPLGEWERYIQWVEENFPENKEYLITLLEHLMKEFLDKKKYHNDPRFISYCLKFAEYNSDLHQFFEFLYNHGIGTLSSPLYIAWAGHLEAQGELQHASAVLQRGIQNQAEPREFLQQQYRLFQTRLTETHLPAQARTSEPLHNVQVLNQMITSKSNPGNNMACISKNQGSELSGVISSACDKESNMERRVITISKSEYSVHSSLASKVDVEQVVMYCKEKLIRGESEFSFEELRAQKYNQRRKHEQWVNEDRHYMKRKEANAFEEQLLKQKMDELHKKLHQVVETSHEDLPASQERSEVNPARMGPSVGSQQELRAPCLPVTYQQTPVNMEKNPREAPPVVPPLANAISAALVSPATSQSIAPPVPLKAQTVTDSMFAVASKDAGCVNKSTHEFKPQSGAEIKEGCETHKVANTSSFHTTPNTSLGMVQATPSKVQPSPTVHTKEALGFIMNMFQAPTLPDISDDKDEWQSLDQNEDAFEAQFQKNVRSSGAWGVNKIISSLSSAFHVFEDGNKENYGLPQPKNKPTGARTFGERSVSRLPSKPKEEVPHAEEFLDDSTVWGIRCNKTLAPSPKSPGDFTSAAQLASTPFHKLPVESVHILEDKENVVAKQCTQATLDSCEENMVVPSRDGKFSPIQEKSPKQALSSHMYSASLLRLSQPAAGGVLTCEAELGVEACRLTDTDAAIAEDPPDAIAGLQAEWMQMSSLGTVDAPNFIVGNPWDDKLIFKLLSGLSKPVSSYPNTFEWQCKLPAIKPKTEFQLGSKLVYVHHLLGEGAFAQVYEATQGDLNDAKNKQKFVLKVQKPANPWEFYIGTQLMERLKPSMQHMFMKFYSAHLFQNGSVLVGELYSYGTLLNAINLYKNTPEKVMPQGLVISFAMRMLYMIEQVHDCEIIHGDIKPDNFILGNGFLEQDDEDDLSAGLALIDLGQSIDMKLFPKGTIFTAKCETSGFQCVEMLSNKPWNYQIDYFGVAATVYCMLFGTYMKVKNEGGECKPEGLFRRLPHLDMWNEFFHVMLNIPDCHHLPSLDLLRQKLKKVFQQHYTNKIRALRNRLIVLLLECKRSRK
Chain of WNK1 (human) (Q9H4A3 whole entry, looked up): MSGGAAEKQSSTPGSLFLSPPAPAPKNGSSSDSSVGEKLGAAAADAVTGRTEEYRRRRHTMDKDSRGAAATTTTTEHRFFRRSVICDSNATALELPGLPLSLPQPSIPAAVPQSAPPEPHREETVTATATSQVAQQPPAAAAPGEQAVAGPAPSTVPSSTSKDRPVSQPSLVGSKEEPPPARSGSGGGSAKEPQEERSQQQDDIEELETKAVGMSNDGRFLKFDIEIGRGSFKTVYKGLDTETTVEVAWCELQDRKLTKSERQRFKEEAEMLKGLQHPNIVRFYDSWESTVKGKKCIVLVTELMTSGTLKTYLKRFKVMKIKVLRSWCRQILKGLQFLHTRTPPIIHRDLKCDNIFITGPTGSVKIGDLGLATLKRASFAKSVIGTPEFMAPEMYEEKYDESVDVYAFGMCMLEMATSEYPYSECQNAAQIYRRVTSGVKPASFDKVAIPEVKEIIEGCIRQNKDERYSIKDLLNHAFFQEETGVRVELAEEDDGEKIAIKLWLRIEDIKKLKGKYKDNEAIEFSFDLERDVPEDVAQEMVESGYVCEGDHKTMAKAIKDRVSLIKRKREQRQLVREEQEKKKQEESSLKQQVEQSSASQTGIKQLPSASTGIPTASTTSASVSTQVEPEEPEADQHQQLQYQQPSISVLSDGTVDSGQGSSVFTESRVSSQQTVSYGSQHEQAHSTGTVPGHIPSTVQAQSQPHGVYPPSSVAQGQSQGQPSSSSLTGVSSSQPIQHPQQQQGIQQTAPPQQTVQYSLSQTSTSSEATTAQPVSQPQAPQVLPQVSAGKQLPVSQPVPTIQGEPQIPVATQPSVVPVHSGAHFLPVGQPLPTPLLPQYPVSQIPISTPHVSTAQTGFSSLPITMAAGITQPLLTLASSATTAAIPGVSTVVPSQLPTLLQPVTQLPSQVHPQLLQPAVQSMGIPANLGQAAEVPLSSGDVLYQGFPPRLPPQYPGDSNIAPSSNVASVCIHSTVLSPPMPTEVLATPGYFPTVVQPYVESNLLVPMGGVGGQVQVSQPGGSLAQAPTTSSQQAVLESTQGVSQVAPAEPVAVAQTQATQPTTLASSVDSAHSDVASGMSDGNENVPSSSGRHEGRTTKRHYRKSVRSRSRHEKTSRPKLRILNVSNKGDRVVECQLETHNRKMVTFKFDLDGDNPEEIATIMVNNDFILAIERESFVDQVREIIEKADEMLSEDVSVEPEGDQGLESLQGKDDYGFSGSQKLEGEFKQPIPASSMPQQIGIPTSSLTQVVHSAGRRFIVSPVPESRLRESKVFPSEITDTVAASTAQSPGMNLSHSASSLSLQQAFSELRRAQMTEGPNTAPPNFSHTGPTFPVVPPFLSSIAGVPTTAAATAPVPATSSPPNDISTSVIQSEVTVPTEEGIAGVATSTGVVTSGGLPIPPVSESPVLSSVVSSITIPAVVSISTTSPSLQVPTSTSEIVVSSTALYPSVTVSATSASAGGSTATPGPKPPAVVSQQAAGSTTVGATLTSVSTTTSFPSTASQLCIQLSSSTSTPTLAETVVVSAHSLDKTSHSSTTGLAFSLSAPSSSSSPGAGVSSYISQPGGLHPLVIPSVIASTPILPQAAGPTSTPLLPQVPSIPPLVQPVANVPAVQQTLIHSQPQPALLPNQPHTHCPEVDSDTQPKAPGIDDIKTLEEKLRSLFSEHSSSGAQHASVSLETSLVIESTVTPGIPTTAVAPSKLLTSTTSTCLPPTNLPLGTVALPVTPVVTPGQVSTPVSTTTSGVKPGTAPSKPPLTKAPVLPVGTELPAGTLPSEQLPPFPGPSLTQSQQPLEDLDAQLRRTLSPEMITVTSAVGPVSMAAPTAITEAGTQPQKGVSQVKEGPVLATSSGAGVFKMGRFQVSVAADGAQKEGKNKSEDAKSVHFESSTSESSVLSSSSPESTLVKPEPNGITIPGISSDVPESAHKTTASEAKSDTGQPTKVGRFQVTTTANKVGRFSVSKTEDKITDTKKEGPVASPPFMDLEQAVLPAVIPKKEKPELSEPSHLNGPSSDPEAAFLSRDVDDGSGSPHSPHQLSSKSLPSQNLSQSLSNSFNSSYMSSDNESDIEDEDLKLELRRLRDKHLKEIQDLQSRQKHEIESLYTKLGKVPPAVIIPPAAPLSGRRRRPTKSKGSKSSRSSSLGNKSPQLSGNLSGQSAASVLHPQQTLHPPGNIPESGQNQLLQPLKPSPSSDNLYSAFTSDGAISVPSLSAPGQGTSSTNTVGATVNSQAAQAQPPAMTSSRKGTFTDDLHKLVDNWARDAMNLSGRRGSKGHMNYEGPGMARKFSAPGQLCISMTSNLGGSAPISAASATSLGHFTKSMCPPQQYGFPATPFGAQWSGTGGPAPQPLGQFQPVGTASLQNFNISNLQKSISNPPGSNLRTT

kinase still bound, per cent of control [1] [%]	kinase still bound, per cent of control (ABL1 (human)) [%]	kinase still bound, per cent of control [2] [%]	Structure (SMILES)	kinase still bound, per cent of control (CDK2 (human)) [%]	kinase still bound, per cent of control (EIF2AK1 (human)) [%]	also measured
			Nc1ccc(-c2ccc3ncc4ccc(=O)n(-c5cccc(C(F)(F)F)c5)c4c3c2)cn1	67	91	
100	100	100	Cc1ccc(C(=O)Nc2cccc(C(F)(F)F)c2)cc1Nc1cncc(C(N)=O)c1	100		
100	100	100	C=CC(=O)Nc1cccc(Oc2nc(Nc3ccc(N4CCN(C)CC4)cc3OC)ncc2Cl)c1	100		
			COc1cc(N2CCN(C)CC2)ccc1Nc1nc(N)c(C(=O)c2c(Cl)cccc2Cl)s1	79	100	
100	100	100	COc1cc(C(=O)NC2CCN(C)CC2)ccc1Nc1ncc2c(n1)N(C1CCCC1)C(C)CC(=O)N2C (centres undefined)	100		
			C[C@@H](Oc1cc(-n2cnc3ccc(CN4CCN(C)CC4)cc32)sc1C(N)=O)c1ccccc1C(F)(F)F	85	94	
			CN(C)C/C=C/C(=O)Nc1cccc(Nc2ncc3c(n2)N(C)c2ccccc2C(=O)N3C)c1	94	100	
			O=C(O)c1ccc(Nc2ncc3c(n2)-c2ccc(Cl)cc2C(c2c(F)cccc2F)=NC3)cc1	84	89	
			N#Cc1c(NC(=O)c2cccc3ccccc23)sc2c1CCCC2	95	100	kinase still bound, per cent of control (BUB1 (human)): 100%; kinase still bound, per cent of control (GSG2 (human)): 100%; kinase still bound, per cent of control (SGK1 (human)): 100%; kinase still bound, per cent of control (WNK3 (human)): 100%; kinase still bound, per cent of control (WNK1 (human)): 89%; kinase still bound, per cent of control (RPS6KA3 KD2 (human)): 100%
			O=C(NC1CC1)c1cccc(-c2ccc3c(NC(=O)C4CC4)n[nH]c3c2)c1	3.4	100	
			CCN1CCN(Cc2ccc(Nc3ncc4c(n3)N(C)c3ccccc3C(=O)N4C)cc2C(F)(F)F)CC1	68	100	
100	100	100	Cn1c(=O)n(-c2ccc(C(C)(C)C#N)cc2)c2c3cc(-c4cnc5ccccc5c4)ccc3ncc21	100		
			O=C(NOC[C@H](O)CO)c1ccc(F)c(F)c1Nc1ccc(I)cc1F	91	100	kinase still bound, per cent of control (BUB1 (human)): 100%; kinase still bound, per cent of control (GSG2 (human)): 100%; kinase still bound, per cent of control (SGK1 (human)): 100%; kinase still bound, per cent of control (WNK3 (human)): 100%; kinase still bound, per cent of control (WNK1 (human)): 92%; kinase still bound, per cent of control (RPS6KA3 KD2 (human)): 100%
			O=C1Nc2ccc(I)cc2/C1=C/c1cc(Br)c(O)c(Br)c1	97	57	
100	100	100	COc1cc(C(=O)NC2CCN(C)CC2)ccc1Nc1ncc2c(n1)N(C1CCCC1)CCC(=O)N2C(C)C	100		
			C=CC(=O)Nc1cc(NC(=O)c2ccc(C)c(NC(=O)c3ccno3)c2)cc(C(F)(F)F)c1	100	100	
100	100	100	OCCCNc1cc(-c2ccnc(Nc3cccc(Cl)c3)n2)ccn1	100		
			C=CC(=O)Nc1cccc(Nc2nc(N[C@H]3CC[C@H](N(C)C)CC3)nc3c2ncn3C(C)C)c1	100	100	
			Cc1ccc(NC(=O)c2cccc(C(C)(C)C#N)c2)cc1Nc1ccc2ncn(C)c(=O)c2c1	100	84	
			Cc1cc([C@@H](C)Nc2ccccc2C(=O)O)c2nc(N3CCOCC3)cc(=O)n2c1	93	97	
100	100	100	CC[C@@H]1C(=O)N(C)c2cnc(Nc3ccc(C(=O)NC4CCN(C)CC4)cc3OC)nc2N1C1CCCC1	100		

Structure (SMILES)	kinase still bound, per cent of control [1] [%]	kinase still bound, per cent of control (ABL1 (human)) [%]	kinase still bound, per cent of control [2] [%]	kinase still bound, per cent of control (CDK2 (human)) [%]	kinase still bound, per cent of control (EIF2AK1 (human)) [%]	also measured
Cc1ccc2nc(NCCN)c3ncc(C)n3c2c1			100		87	
CCCS(=O)(=O)Nc1ccc(F)c(C(=O)c2c[nH]c3ncc(-c4ccc(Cl)cc4)cc23)c1F		57	79		60	
CCC(=O)N1CCN(c2ccc(-n3c(=O)ccc4cnc5ccc(-c6cnc7ccccc7c6)cc5c43)cc2C(F)(F)F)CC1		60		6.2	57	
CCOc1cc2ncc(C#N)c(Nc3ccc(OCc4ccccn4)c(Cl)c3)c2cc1NC(=O)/C=C/CN(C)C	71	100			100	
